pKi: −log10 of the molar value.
Legend:
[1] = target: Mu-type opioid receptor (Cavia porcellus, UniProt P97266); test: Displacement of [3H]-DAMGO from mu opioid receptor in guinea pig brain membrane after 120 mins by scintillation counting; format: cell membranes
[2] = target: T1, Kappa-type opioid receptor (Homo sapiens, UniProt P41145); test: Binding affinity to kappa opioid receptor (unknown origin)
[3] = target: Kappa-type opioid receptor (Cavia porcellus, UniProt P41144); test: Displacement of [3H]-U-69593 from kappa opioid receptor in guinea pig brain membrane after 120 mins by scintillation counting; format: cell membranes
[4] = target: Delta-type opioid receptor (Rattus norvegicus, UniProt P33533); test: Displacement of [3H]-DPDPE from delta opioid receptor in rat brain membrane after 120 mins by scintillation counting; format: cell membranes
[5] = target: T1, Kappa-type opioid receptor; test: Intrinsic activity at kappa opioid receptor in human HEK293 cells at 100 nM after 30 mins by [35S]GTPgammaS binding assay relative to U-69593; format: functional, cell-based

Mu-type opioid receptor, sequence (P97266 whole entry): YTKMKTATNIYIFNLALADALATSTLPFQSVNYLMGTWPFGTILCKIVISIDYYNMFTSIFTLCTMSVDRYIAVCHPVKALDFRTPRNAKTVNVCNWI
T1 sequence (P41145 whole entry): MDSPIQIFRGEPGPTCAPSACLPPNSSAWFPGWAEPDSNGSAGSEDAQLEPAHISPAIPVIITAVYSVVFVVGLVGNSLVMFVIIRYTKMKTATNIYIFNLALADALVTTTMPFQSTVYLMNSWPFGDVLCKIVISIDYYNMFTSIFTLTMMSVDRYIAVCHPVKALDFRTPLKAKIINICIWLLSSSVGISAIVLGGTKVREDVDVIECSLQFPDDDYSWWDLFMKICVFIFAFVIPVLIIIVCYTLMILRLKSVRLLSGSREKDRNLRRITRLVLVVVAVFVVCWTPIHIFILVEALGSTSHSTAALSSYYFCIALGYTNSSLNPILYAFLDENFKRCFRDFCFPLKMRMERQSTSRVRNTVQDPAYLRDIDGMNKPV
Kappa-type opioid receptor (Cavia porcellus, UniProt P41144), sequence (P41144 whole entry): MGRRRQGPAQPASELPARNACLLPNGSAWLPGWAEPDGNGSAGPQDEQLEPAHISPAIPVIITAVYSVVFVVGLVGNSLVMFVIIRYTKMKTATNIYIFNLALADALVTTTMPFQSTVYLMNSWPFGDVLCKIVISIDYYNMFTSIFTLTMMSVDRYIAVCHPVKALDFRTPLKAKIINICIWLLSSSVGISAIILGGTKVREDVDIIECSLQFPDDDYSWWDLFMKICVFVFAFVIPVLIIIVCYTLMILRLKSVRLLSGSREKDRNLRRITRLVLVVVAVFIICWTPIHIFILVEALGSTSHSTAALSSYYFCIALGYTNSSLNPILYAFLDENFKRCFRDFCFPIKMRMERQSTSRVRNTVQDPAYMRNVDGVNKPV
Delta-type opioid receptor, sequence (P33533 whole entry): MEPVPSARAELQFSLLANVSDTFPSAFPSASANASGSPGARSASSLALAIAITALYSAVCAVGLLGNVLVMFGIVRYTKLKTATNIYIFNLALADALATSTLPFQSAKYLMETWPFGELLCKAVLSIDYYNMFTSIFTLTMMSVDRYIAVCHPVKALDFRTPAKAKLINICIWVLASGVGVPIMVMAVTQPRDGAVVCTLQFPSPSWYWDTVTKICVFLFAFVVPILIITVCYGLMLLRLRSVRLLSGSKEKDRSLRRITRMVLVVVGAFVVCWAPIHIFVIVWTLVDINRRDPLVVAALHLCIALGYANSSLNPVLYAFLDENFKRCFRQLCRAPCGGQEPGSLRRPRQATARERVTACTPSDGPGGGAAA

Compound	pKi [1]	other results
COC(=O)N1CCN(C(=O)Cc2ccc(Cl)c(Cl)c2)[C@H]2[C@H](N3CCCC3)CCC[C@H]21	6.26	–
COC(=O)N1CCN(C(=O)Cc2ccc(Cl)c(Cl)c2)[C@@H]2[C@@H](N3CCCC3)CCC[C@@H]21	7.37	–
COC(=O)N1CCN(C(=O)Cc2ccc(Cl)c(Cl)c2)[C@H](CN2CCCC2)C1	–	pKi [2]: 6.44; pKi [3]: 9.44
COC(=O)N1CCN(C(=O)Cc2ccc(Cl)c(Cl)c2)[C@H]2[C@H](N3CCCC3)CCC[C@H]21 (racemic)	6.95	–
COC(=O)N1CCN(C(=O)Cc2ccc(Cl)c(Cl)c2)[C@H]2[C@H](N3CCCC3)CCC[C@@H]21 (stereo in doubt)	6.51	–
COC(=O)N1CCN(C(=O)Cc2ccc(Cl)c(Cl)c2)[C@H]2[C@@H](N3CCCC3)CCC[C@@H]21 (stereo in doubt)	6.46	–
COC(=O)N1CCN(C(=O)Cc2ccc(Cl)c(Cl)c2)[C@@H]2[C@H](N3CCCC3)CCC[C@H]21 (stereo in doubt)	6.93	–
CN(C(=O)/C=C/c1ccoc1)[C@@H]1CC[C@@]2(O)[C@H]3Cc4ccc(O)c5c4[C@@]2(CCN3CC2CC2)[C@H]1O5 [NALFURAFINE]	–	pKi [4]: 9.43; Activity [5]: 100%

Source: ChEMBL document CHEMBL3632621, “Conformationally restricted κ-opioid receptor agonists: Synthesis and pharmacological evaluation of diastereoisomeric and enantiomeric decahydroquinoxalines” (Bioorg Med Chem Lett, 2015)
